pKd: −log10 of the molar value. Where two headings read alike, the source gives them in different places. Where a SMILES comes first, the peptide text is derived from it. Bridges are numbered along the chain shown (N, C = ends). [ ]: non-standard residue; d: D form. The star is where a group is joined. X2 = O=C(O)c1cc(C(=O)*)ccc1-c1c2ccc(=O)cc-2oc2cc(O)ccc12; PEG12 = NCCOCCOCCOCCOCCOCCOCCOCCOCCOCCOCCOCCOCCC(=O)O; NMePhe(3-Cl) = CN[C@@H](Cc1cccc(Cl)c1)C(=O)O; NMeW = CN[C@@H](Cc1c[nH]c2ccccc12)C(=O)O; Lys(N3) = [N-]=[N+]=NCCCC[C@H](N)C(=O)O; NMeY = CN[C@@H](Cc1ccc(O)cc1)C(=O)O; PEG4 = NCCOCCOCCOCCOCCC(=O)O; Dap = NC[C@H](N)C(=O)O
Molecular target: transferrin receptor (hTfR) (Homo sapiens, UniProt P02786)
Sequence (P02786 whole entry): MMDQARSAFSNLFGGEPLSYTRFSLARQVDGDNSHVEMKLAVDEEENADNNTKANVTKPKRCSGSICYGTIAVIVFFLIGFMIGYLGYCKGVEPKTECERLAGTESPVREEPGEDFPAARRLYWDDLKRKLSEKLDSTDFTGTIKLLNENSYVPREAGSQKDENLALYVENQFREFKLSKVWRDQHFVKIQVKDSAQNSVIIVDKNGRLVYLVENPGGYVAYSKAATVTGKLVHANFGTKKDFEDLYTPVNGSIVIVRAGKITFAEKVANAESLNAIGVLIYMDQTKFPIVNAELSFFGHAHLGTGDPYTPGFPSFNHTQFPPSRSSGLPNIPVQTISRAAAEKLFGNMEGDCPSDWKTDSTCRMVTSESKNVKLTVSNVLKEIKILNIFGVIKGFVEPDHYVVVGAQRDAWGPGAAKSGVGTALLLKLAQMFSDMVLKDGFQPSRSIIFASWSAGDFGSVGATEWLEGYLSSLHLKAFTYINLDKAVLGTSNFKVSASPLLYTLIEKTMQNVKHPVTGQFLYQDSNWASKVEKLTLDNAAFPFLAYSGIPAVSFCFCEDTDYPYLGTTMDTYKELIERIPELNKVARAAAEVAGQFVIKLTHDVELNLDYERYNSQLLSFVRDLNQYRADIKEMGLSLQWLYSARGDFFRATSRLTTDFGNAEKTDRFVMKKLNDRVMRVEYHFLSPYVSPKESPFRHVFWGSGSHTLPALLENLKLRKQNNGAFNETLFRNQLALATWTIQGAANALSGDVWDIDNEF
Assay: Intermolecular interaction evaluation test between transferrin receptor (hTfR) and peptide by surface plasmon resonance (SPR)
Assay type: binding
Description: For each of the various synthesized peptides, the intermolecular interaction of the peptide with the transferrin receptor (hTfR) was tested by surface plasmon resonance (SPR) according to the following method. The specific test method is as follows.
An NTA sensor chip (Global Life Sciences Technologies Japan) was inserted in a Biacore T200 (Global Life Sciences Technologies Japan) and a prime operation was performed 3 times with a running buffer: 10 mM HEPES pH 8.0 (Nacalai Tesque), 150 mM NaCl (Nacalai Tesque), 0.05% Tween 20 (Nacalai Tesque), 0.1% BSA (Sigma-Aldrich), 1.0% DMSO (FUJIFILM Wako Pure Chemical) to create an Equilibration state at a flow rate of 30 µL/min. After reacting with 350 mM EDTA solution for 60 seconds at a flow rate of 10 µL/min then reacting with 0.5 mM NiCl2 solution (Kishida Chemical) for 60 seconds at a flow rate of 10 µL/min, the NTA sensor chip was washed with 3 mM EDTA solution (Nacalai Tesque) for 60 seconds at a flow rate of 10 µL/min. After mixing 50 µL each of 60 mM EDC solution (Global Life Sciences Technologies Japan) and 650 mM NHS solution (Global Life Sciences Technologies Japan), the mixture was reacted for 420 seconds at a flow rate of 10 µL/min. By diluting with the running buffer, 150 µL of 3.2 µM hTfR solution was prepared and used for reaction for 600 seconds at a flow rate of 10 µL/min, thereby immobilizing hTfR on the NTA sensor chip. After immobilization, capping was performed by reacting with 1.0 M ethanolamine aqueous solution (Global Life Sciences Technologies Japan) for 420 seconds at a flow rate of 10 µL/min. A peptide dissolution liquid prepared to 10 mM in the DMSO solution was diluted with the running buffer to a final concentration of 10 µM so as to become the peptide dissolution liquid, then peptide solutions of 100 nM, 50 nM, 25 nM, 10 nM and 5 nM were prepared. Kinetics of the peptide to hTfR was acquired by SPR measurement using the above-mentioned samples. Single-cycle kinetics was used as a kinetic evaluation model and curve fitting was performed using Biacore T200 Evaluation Software Version 3.0 (Global Life Sciences Technologies Japan). An obtained sensorgram was subjected to curve fitting using the least-squares method, and the binding of the peptide to hTfR was evaluated by obtaining KD values. […] A chemical structure of hTfR No. 894 is as follows.
The variant peptides were synthesized according to Example 1 unless otherwise stated in Example 9 or 10. The linker-added peptides were synthesized according to Example 1, except that Fmoc-NH-SAL-PEG resin (Watanabe Chemical Industries) was used as a resin for the peptide synthesis when the linker was PEG. The peptide, to which a peptide, a fatty acid, PEG, or a conjugate thereof is added as a linker, was also synthesized according to Example 1, unless otherwise stated in Example 9 or 10.

[1] = SPR, linker and payload (FITC, VivoTag) conjugates, read-out: KD
[2] = surface plasmon resonance, hTfR, read-out: KD value for hTfR by SPR (class symbol)

A pKd [1] of 7.00 to 9.00 was found for `CC[C@H](C)[C@@H]1NC(=O)[C@H](Cc2ccc(O)cc2)NC(=O)[C@H](Cc2ccc(O)cc2)NC(=O)[C@H](CC(N)=O)NC(=O)[C@H](Cc2c[nH]c3ccccc23)NC(=O)[C@H](C(C)C)NC(=O)[C@H](Cc2ccccc2)NC(=O)[C@H](C(C)C)NC(=O)[C@H](C)NC(=O)CSC[C@@H](C(=O)NCCOCCOCCOCCOCCC(=O)N[C@@H](CNC(=O)c2ccc(-c3c4ccc(=O)cc-4oc4cc(O)ccc34)c(C(=O)O)c2)C(N)=O)NC(=O)[C@H](Cc2ccc(O)cc2)N(C)C(=O)[C@H](Cc2ccc(O)cc2)NC(=O)[C@H](CCCNC(=N)N)NC(=O)[C@H](CCCNC(=N)N)NC(=O)[C@H]([C@@H](C)CC)NC1=O` [compound 159] in this work.
A pKd [2] of 7.00 to 9.00 was found for `CC[C@H](C)[C@@H]1NC(=O)[C@H](Cc2ccc(OC)cc2)NC(=O)[C@H](Cc2ccc(O)cc2)NC(=O)[C@H](CC(N)=O)NC(=O)[C@H](Cc2c[nH]c3ccccc23)N(C)C(=O)[C@H](C(C)C)NC(=O)[C@H](Cc2cccc(Cl)c2)N(C)C(=O)[C@H](C(C)C)NC(=O)[C@H](C)NC(=O)CSC[C@@H](C(=O)NCCOCCOCCOCCOCCC(N)=O)NC(=O)[C@H](Cc2ccc(O)cc2)N(C)C(=O)[C@H](Cc2ccccc2)NC(=O)[C@@H](CCCNC(=N)N)NC(=O)[C@H](CN)NC(=O)[C@H]([C@@H](C)CC)NC1=O` [compound 365] ({CH2CO}-AV[NMePhe(3-Cl)]V[NMeW]NYY(Me)II[Dap][dR]F[NMeY]C[PEG4]-NH2; thioether N-15) in this work.
A pKd [2] of 7.00 to 9.00 was found for `CC[C@H](C)[C@@H]1NC(=O)[C@H](Cc2ccc(OC)cc2)NC(=O)[C@H](Cc2ccc(O)cc2)NC(=O)[C@H](CC(N)=O)NC(=O)[C@H](Cc2c[nH]c3ccccc23)N(C)C(=O)[C@H](C(C)C)NC(=O)[C@H](Cc2cccc(Cl)c2)N(C)C(=O)[C@H](C(C)C)NC(=O)[C@H](C)NC(=O)CSC[C@@H](C(N)=O)NC(=O)[C@H](Cc2ccc(O)cc2)N(C)C(=O)[C@H](Cc2ccccc2)NC(=O)[C@@H](CCCNC(=N)N)NC(=O)[C@H](CCCCN)NC(=O)[C@H]([C@@H](C)CC)NC1=O` [compound 373] in this work.
A pKd [2] of 7.00 to 9.00 was found for `CC[C@H](C)[C@@H]1NC(=O)[C@H](Cc2ccc(OC)cc2)NC(=O)[C@H](Cc2ccc(O)cc2)NC(=O)[C@H](CC(N)=O)NC(=O)[C@H](Cc2c[nH]c3ccccc23)N(C)C(=O)[C@H](C(C)C)NC(=O)[C@H](Cc2cccc(Cl)c2)N(C)C(=O)[C@H](C(C)C)NC(=O)[C@H](C)NC(=O)CSC[C@@H](C(=O)NCC(=O)NCC(=O)N[C@@H](CO)C(=O)NCC(=O)N[C@@H](CO)C(=O)NCC(=O)N[C@@H](CCCCN=[N+]=[N-])C(N)=O)NC(=O)[C@H](Cc2ccc(O)cc2)N(C)C(=O)[C@H](Cc2ccccc2)NC(=O)[C@@H](CCCCN)NC(=O)[C@H](CCCNC(=N)N)NC(=O)[C@H]([C@@H](C)CC)NC1=O` [compound 406] ({CH2CO}-AV[NMePhe(3-Cl)]V[NMeW]NYY(Me)IIR[dK]F[NMeY]CGGSGSG[Lys(N3)]-NH2; thioether N-15) in this work.
A pKd (surface plasmon resonance, peptide vs hTfR, read-out: KD value, hTfR binding by SPR (class symbol)) of 7.00 to 9.00 was found for `CC[C@H](C)[C@@H]1NC(=O)[C@H](Cc2ccc(OC)cc2)NC(=O)[C@H](Cc2ccc(O)cc2)NC(=O)[C@H](CC(N)=O)NC(=O)[C@H](Cc2c[nH]c3ccccc23)N(C)C(=O)[C@H](C(C)C)NC(=O)[C@H](Cc2cccc(Cl)c2)N(C)C(=O)[C@H](C(C)C)NC(=O)[C@H](C)NC(=O)CSC[C@@H](C(=O)NCC(=O)NCC(=O)NCC(=O)NCC(=O)N[C@@H](CO)C(=O)N[C@@H](CO)C(=O)N[C@@H](CS)C(N)=O)NC(=O)[C@H](Cc2ccc(O)cc2)N(C)C(=O)[C@H](Cc2ccccc2)NC(=O)[C@@H](CCCNC(=N)N)NC(=O)[C@H](CCCNC(=N)N)NC(=O)[C@H](CCCCN)NC1=O` [compound 344] in this work.
A pKd (hTfR binding by SPR, hTfR No. 894 variant peptides, linker-added peptides and payload conjugates (Table 2), read-out: KD value obtained from the SPR measurement) of 7.00 to 9.00 was found for `CC[C@H](C)[C@@H]1NC(=O)[C@H](Cc2ccc(O)cc2)NC(=O)[C@H](Cc2ccc(O)cc2)NC(=O)[C@H](CC(N)=O)NC(=O)[C@H](Cc2c[nH]c3ccccc23)NC(=O)[C@H](C(C)C)NC(=O)[C@H](Cc2ccccc2)N(C)C(=O)[C@H](C(C)C)NC(=O)[C@H](C)NC(=O)CSC[C@@H](C(=O)NCC(=O)NCC(=O)N[C@@H](CO)C(=O)NCC(=O)N[C@@H](CO)C(=O)N[C@@H](CO)C(=O)NCC(=O)N[C@@H](CO)C(=O)N[C@@H](CO)C(=O)N[C@@H](CCCCNC(=O)C2CCC(CN3C(=O)C=CC3=O)CC2)C(N)=O)NC(=O)[C@H](Cc2ccc(O)cc2)N(C)C(=O)[C@H](Cc2ccc(O)cc2)NC(=O)[C@H](CCCNC(=N)N)NC(=O)[C@H](CCCNC(=N)N)NC(=O)[C@H]([C@@H](C)CC)NC1=O` (some centres unmarked) [compound 189] in this work.
A pKd [1] of 7.00 to 9.00 was found for `CC[C@H](C)[C@@H]1NC(=O)[C@H](Cc2ccc(O)cc2)NC(=O)[C@H](Cc2ccc(O)cc2)NC(=O)[C@H](CC(N)=O)NC(=O)[C@H](Cc2c[nH]c3ccccc23)NC(=O)[C@H](C(C)C)NC(=O)[C@H](Cc2ccccc2)NC(=O)[C@H](C(C)C)NC(=O)[C@H](C)NC(=O)[C@H](CO)NC(=O)[C@H](C)NC(=O)CSC[C@@H](C(=O)NCCOCCOCCOCCOCCOCCOCCOCCOCCOCCOCCOCCOCCC(=O)N[C@@H](CCCCNC(=O)c2ccc(-c3c4ccc(=O)cc-4oc4cc(O)ccc34)c(C(=O)O)c2)C(N)=O)NC(=O)[C@H](C)NC(=O)[C@H](Cc2c[nH]c3ccccc23)NC(=O)[C@H](CCCNC(=N)N)NC(=O)[C@H](CC(N)=O)NC(=O)[C@H]([C@@H](C)CC)NC1=O` [compound 155] ({CH2CO}-ASAVFVWNYYIINRWAC[PEG12]K(X2)-NH2; thioether N-17) in this work.
A pKd (binding to hTfR by SPR, Table 2 peptides, read-out: KD value (SPR) class) of 7.00 to 9.00 was found for `CC[C@H](C)[C@@H]1NC(=O)[C@H](Cc2ccc(O)cc2)NC(=O)[C@H](Cc2ccc(O)cc2)NC(=O)[C@H](CC(N)=O)NC(=O)[C@H](Cc2c[nH]c3ccc(Cl)cc23)NC(=O)[C@H](C(C)C)NC(=O)[C@H](Cc2ccccc2)N(C)C(=O)[C@H](C(C)C)NC(=O)[C@H](C)NC(=O)CSC[C@@H](C(N)=O)NC(=O)[C@H](Cc2ccc(O)cc2)N(C)C(=O)[C@H](Cc2ccc(O)cc2)NC(=O)[C@H](CCCNC(=N)N)NC(=O)[C@H](CCCNC(=N)N)NC(=O)[C@H]([C@@H](C)CC)NC1=O` [compound 268] in this work.
A pKd (SPR, hTfR, class symbols A-D, read-out: KD (column without head, continuation of the table series)) of 7.00 to 9.00 was found for `CC[C@H](C)[C@@H]1NC(=O)[C@H](Cc2ccc(O)cc2)NC(=O)[C@H](Cc2ccc(O)cc2)NC(=O)[C@H](CC(N)=O)NC(=O)[C@H](Cc2c[nH]c3ccccc23)NC(=O)[C@H](C(C)C)NC(=O)[C@H](Cc2ccccc2)N(C)C(=O)[C@H](C(C)C)NC(=O)[C@H](C)NC(=O)CSC[C@@H](C(=O)NCC(=O)N[C@@H](CCCCN)C(N)=O)NC(=O)[C@H](Cc2ccc(O)cc2)N(C)C(=O)[C@H](Cc2ccc(O)cc2)NC(=O)[C@H](CCCNC(=N)N)NC(=O)[C@H](CCCNC(=N)N)NC(=O)[C@H]([C@@H](C)CC)NC1=O` [compound 525] in this work.
A pKd [1] greater than 9.00 was found for `CC[C@H](C)[C@@H]1NC(=O)[C@H](Cc2ccc(O)cc2)NC(=O)[C@H](Cc2ccc(O)cc2)NC(=O)[C@H](CC(N)=O)NC(=O)[C@H](Cc2c[nH]c3ccccc23)NC(=O)[C@H](C(C)C)NC(=O)[C@H](Cc2ccccc2)NC(=O)[C@H](C(C)C)NC(=O)[C@H](C)NC(=O)CSC[C@@H](C(=O)NCCOCCOCCOCCOCCOCCOCCOCCOCCOCCOCCOCCOCCC(=O)N[C@@H](CCCCNC(=O)c2ccc(-c3c4ccc(=O)cc-4oc4cc(O)ccc34)c(C(=O)O)c2)C(N)=O)NC(=O)[C@H](CC(N)=O)NC(=O)[C@@H]2CCCN2C(=O)[C@H](C(C)C)NC(=O)[C@H](CC(N)=O)NC(=O)[C@H](CCCNC(=N)N)NC(=O)CNC(=O)[C@H](C(C)C)NC1=O` [compound 152] ({CH2CO}-AVFVWNYYIVGRNVPNC[PEG12]K(X2)-NH2; thioether N-17) in this work.
A pKd [2] of 7.00 to 9.00 was found for `CC[C@H](C)[C@@H]1NC(=O)[C@H](Cc2ccc(OC)cc2)NC(=O)[C@H](Cc2ccc(O)cc2)NC(=O)[C@H](CC(N)=O)NC(=O)[C@H](Cc2c[nH]c3ccccc23)N(C)C(=O)[C@H](C(C)C)NC(=O)[C@H](Cc2cccc(Cl)c2)N(C)C(=O)[C@H](C(C)C)NC(=O)[C@H](C)NC(=O)CSC[C@@H](C(=O)NCCOCCOCCOCCOCCC(N)=O)NC(=O)[C@H](Cc2ccc(O)cc2)N(C)C(=O)[C@H](Cc2ccccc2)NC(=O)[C@H](CCCNC(=N)N)NC(=O)C(C)(C)NC(=O)[C@H]([C@@H](C)CC)NC1=O` [compound 351] in this work.
